Data: patent publication US10662168B2, “Compounds for treating parasitic infections” (University of Maryland, College Park, priority 2015, dated 2020)
Read-outs that look alike come from different tables or passages of the source.

Experiments:
[1] = system: intracellular forms of Leishmania (L. amazonensis amastigotes in BMDMs); conditions: benchmark value; read-out: IC50 against intra-macrophage L. amazonensis; cited from earlier work
[2] = system: intracellular L. donovani; conditions: cited from earlier work
[3] = Drug-like parameters: Log P and solubility; type: physicochemical
BMDMs = assay: Toxicity to uninfected host BMDMs (AlamarBlue viability); type: cell-based, mouse; conditions: even at 40-fold greater concentrations
Experimental: (§1) FIG. 5. Dose response curves (IC50) of FX40 (∘) and the novel derivative compound FX104 (●). (A) BMDMs infected with L. amazonensis amastigotes were treated with various concentrations of the indicated compound for 72 h. BMDMs were lysed and released amastigotes were transformed to promastigotes for 48 h at 26° C. IC50 values were calculated by quantitation of % promastigote growth using AlamarBlue. (B) Dose response of uninfected BMDMs to compounds. (C) A table showing selectivity criteria for drug efficacy studies. (D) A table showing a summary of high throughput screening.
(§2) To validate the […] efficacy of lead compounds against intracellular amastigotes in macrophages, primary bone marrow-derived macrophages (BMDMs) from mice were obtained and infected them with L. amazonensis amastigotes followed by incubation for 72 h with LHR1 antagonists or amphotericin B which kills intracellular Leishmania, as a positive control. Cells were then fixed and stained with DAPI which permits visualization of the host macrophage nuclei and parasite nuclei and kinetoplasts. Images collected with fluorescent microscopy were used to determine the ratio between total number of parasites and total number of host cells per treatment. Toxicity to host cells were measured by AlamarBlue viability assays. […] (Sch. 1 and FIG. 4A) The structure of FX104 is shown in Scheme 1.

[4] = Drug-like parameters: absorption and metabolic stability; type: in vitro ADME
P-gp = P-gp (Homo sapiens, UniProt P08183); assay: Drug-like parameters: P-gp efflux; type: in vitro ADME
P-gp, sequence (P08183 whole entry): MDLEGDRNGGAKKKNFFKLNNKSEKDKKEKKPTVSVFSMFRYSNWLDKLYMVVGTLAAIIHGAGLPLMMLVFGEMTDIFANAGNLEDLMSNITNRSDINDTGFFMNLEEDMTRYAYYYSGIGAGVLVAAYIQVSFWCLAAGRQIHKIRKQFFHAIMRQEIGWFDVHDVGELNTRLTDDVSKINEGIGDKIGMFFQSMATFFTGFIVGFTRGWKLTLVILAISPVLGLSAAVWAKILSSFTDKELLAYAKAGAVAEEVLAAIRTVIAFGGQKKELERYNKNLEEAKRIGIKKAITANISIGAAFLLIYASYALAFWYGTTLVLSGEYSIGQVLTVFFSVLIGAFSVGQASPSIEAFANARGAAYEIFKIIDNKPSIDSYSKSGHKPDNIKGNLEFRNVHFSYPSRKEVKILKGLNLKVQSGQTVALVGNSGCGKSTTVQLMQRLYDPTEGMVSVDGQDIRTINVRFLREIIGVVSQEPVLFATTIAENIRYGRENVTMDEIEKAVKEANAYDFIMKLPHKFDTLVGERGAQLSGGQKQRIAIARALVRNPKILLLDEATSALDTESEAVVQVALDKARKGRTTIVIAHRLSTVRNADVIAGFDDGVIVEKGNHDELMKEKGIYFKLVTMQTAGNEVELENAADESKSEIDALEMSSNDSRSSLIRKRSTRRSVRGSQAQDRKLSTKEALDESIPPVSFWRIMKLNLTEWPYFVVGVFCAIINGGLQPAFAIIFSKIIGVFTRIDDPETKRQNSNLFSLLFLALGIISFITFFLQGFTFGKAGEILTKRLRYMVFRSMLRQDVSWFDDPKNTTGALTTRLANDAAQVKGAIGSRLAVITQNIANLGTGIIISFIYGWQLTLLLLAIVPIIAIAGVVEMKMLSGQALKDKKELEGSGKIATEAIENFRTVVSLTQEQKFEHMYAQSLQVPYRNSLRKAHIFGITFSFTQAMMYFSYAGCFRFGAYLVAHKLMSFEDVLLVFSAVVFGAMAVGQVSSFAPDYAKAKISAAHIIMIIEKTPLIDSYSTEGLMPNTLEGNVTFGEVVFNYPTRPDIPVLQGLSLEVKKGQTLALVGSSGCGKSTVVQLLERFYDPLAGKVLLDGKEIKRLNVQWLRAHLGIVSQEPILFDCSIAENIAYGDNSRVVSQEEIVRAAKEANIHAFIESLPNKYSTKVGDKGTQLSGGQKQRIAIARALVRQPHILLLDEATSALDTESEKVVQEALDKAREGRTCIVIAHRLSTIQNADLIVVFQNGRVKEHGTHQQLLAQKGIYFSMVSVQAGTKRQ

[5] = system: intracellular forms of Leishmania (L. amazonensis amastigotes in BMDMs); assay: Dose response in BMDMs infected with L. amazonensis amastigotes, released amastigotes transformed to promastigotes, AlamarBlue; type: cell-based
Experimental: as §1, §2

solubility [3]	absorption [4]	metabolic stability [4]	P-gp efflux (P-gp)	Compound	IC50 [1] [nM]	IC50 ([2]; benchmark value, read-out: IC50 for intra-macrophage L. donovani) [nM]	efficacy ([2]; benchmark, intra-macrophage Leishmania) [%]	toxicity in BMDMs (BMDMs)	IC50 ([5]; BMDM, BMDMs infected with L. amazonensis amastigotes, 72 h, read-out: IC50 against intracellular forms of Leishmania) [nM]	fold more effective against intracellular forms of Leishmania than FX40 ([5]; FX104 versus FX40)
–	–	–	–	C[C@@H]1[C@H](O)[C@@H](C)/C=C/C=C/C=C/C=C/C=C/C=C/C=C/[C@H](O[C@@H]2O[C@H](C)[C@@H](O)[C@H](N)[C@@H]2O)C[C@@H]2O[C@](O)(C[C@@H](O)C[C@@H](O)[C@H](O)CC[C@@H](O)C[C@@H](O)CC(=O)O[C@H]1C)C[C@H](O)[C@H]2C(=O)O [Amphotericin B]	50 to 100	20 to 60	> 90	–	–	–
better	better	better	decreased	Cc1ccc([C@]2(NCCN(C)C)OC(=O)c3cccc(F)c32)cc1C [FX104]	–	–	–	little or no toxicity	250	over 30 fold
